Test results taken from EP1714639A1, “Cosmetic compositions containing piperazine derivatives” (L'ORÉAL, priority 2005, dated 2006).

Experiments:
[1] = system: cellules musculaires striées humaines; assay: nerve-muscle co-culture test (inhibition of muscle fibre contractions); format: cell-based; conditions: for inhibition at 10 µM / inhibition at 100 µM: 60 s incubation, contractions counted over 30 s, triplicate, read-out: % d'inhibition des contractions
Excerpt: Les composés des Exemples 1 et 2 ont été testés sur un modèle de co-culture nerfs-muscles qui permet de recréer un arc moteur en innervant des cellules musculaires striées humaines avec des explants de moelle épinière et de ganglions rachidiens d'embryons de rat.
Des cellules musculaires humaines, issues de prélèvements de muscles striés de donneur sain, sont ensemencées dans des puits de 1,8 cm^2 de section (boîtes de culture de 24 puits). Après 10 jours de culture, ces cellules forment une monocouche et fusionnent. A ce stade, des explants de moelle épinière d'embryons de rat de 13 jours contenant les ganglions rachidiens sont déposées sur la culture.
La croissance des neurites est visible en dehors de l'explant de moelle épinière après un jour de culture. Les premières contractions des fibres musculaires sont observées après 5 à 6 jours de co-culture et après 3 semaines, toutes les fibres musculaires au voisinage des explants se contractent.
Le co-cultures sont utilisées après 21 jours, quand les fibres musculaires sont striées et possèdent des jonctions neuromusculaires différenciées matures.
Une fibre musculaire ayant des contractions régulières (au moins 60 contractions par minute) est alors sélectionnée dans trois puits de culture différents et le nombre de contractions est comptabilisé sur 30 secondes. Les composés testés, dilués dans le DMSO, sont ensuite incubés pendant 60 secondes dans ces puits, à la concentration de 10 µM pour le composé de l'Exemple 1 et de 10 et 100 µM pour le composé de l'Exemple 2. A la fin de l'incubation, le nombre de contractions est à nouveau comptabilisé sur 30 secondes. Le test est réalisé en triplicata.

[2] = anti-wrinkle activity in vivo
[3] = system: canaux calciques de type L; assay: binding test on L-type calcium channels ([3H](-) D 888 displacement, verapamil site); set-up: species or system rat; conditions: for % inhibition de la liaison: 1 µM in DMSO, [3H](-) D 888 0.5 nM, rat cerebral cortex homogenates, 60 min/22°C
Method: On a évalué la capacité des composés des Exemples 1, 4 et 5 (à 1 µM dans le DMSO) à inhiber par compétition la fixation d'[…] de canaux calciques de type L.
Les études sont réalisées à partir d'homogénats de cortex cérébral de rat (membranes isolées présentant à leur surface des canaux calciques de type L) selon la méthode décrite par Reynolds I.J. et al., 1986, J. Pharmacol. Exp. Ther., 237, p.731.
Les conditions expérimentales sont les suivantes :
D888 qui est le [^3H](-) desmethoxyverapamil sert de ligand spécifique radiomarqué et D600 qui est le chlorhydrate de (±)méthoxyvérapamil sert de molécule de référence.
La liaison spécifique d'un ligand (D888 marqué) aux récepteurs (canaux calciques de type L, site vérapamil) est définie comme la différence entre la liaison totale et la liaison non spécifique déterminée en présence d'un excès de ligand froid (non radioactif). Les résultats sont exprimés en pourcentage d'inhibition de la liaison spécifique du témoin en présence du composé testé.

With CN1C(=O)CN=C(c2ccccc2)c2cc(Cl)ccc21 [diazépam, reference compound] the “contractions des fibres musculaires” value ([1]; earlier finding of the applicant in this model) was “inhibait les contractions des fibres musculaires” and the activité anti-rides [2] was “démontrée in vivo”.
With c1ccc(CCCN2CCN(CCc3ccccc3)CC2)cc1 [compound 2, 1-(2-phenylethyl)-4-(3-phenylpropyl)-piperazine] the inhibition at 10 µM [1] was 50%, the inhibition at 100 µM [1] was 100% and the “inhibition de la liaison spécifique du témoin aux canaux calciques” value ([3]; similar test, concentration 50 µM) was 50%.
For OCCCN1CCN(CCCc2ccccc2)CC1 [compound 4, 1-(3-hydroxpropyl) 4-(3-phenylpropyl)-piperazine], the “% inhibition de la liaison” value [3] was 22%.
For C(=Cc1ccccc1)CN1CCN(CCCc2ccccc2)CC1 [compound 1, 1-(3-phenyl-2-propenyl)-4-(3-phenylpropyl)-piperazine], the inhibition at 10 µM [1] was 65%, the inhibition at 100 µM [1] was 100% and the “% inhibition de la liaison” value [3] was 30%.
For CCN1CCN(CCCc2ccccc2)CC1 [compound 5, 1-ethyl 4-(3-phenylpropyl)-piperazine], the “% inhibition de la liaison” value [3] was 16%.
